Test results from patent publication US7205383B2, “Peptide ligands of leukocyte integrins” (Karyon-CTT Ltd., priority 2001, dated 2007).
Bridge positions count the residues as written; N and C are the ends. Peptide text beside a SMILES is read from it.

Tests used:
[1] = tested on: THP-1 cells (β2 integrins); conditions: soluble peptide
Procedure: In FIG. 2(A), phorbol ester-activated THP-1 cells were allowed to bind for 60 min to microtiter wells coated with LLG-C4-GST, GST, or albumin. EDTA was included at a 2.5 mM concentration. The bound cells were determined by the assay measuring cellular phosphatase activity. The data are the means ±SD from triplicate wells.
In FIG. 2(B), THP-1 cells were mixed with each antibody against the β1, β2, β3, αL, αM, or αX integrin subunit as indicated at a concentration of […]. An aliquot of cells was then transferred to wells coated with LLG-C4-GST and incubated for 60 min at 37° C. Following washing the bound cells were determined by the phosphatase assay. The results are the mean % adhesion ±SD of 2–4 independent experiments each done in triplicate wells.
In FIG. 3(A), TBP-1 cells were mixed in suspension with the peptide containing either the C(1–8;3–9) or C(1–9;3–8) disulfide. The final concentrations of the peptides are indicated. Cells were then incubated for 60 min at 37° C. in microtiter wells coated with LLG-C4-GST. After washing the wells, the bound cells were quantitated by the phosphatase assay. The results are the mean ±SD from triplicate wells.
In FIG. 3(B), THP-1 cell binding to LLG-C4-GST was examined in the presence of the C(1–8;3–9), CLLGC (SEQ ID NO: 4) or the CAAGC (SEQ ID NO: 5) peptide. The synthetic peptides were used at the concentrations indicated. Following a 60 min incubation the wells were washed and the bound cells were determined by the phosphatase assay.
Fibrinogen, fibronectin, von Wrlnebrand factor, type IV collagen, GST fusion proteins, Fc fusion proteins or synthetic peptides were coated on microtiter wells at a concentration of 2 μg in 50 μl TBS unless otherwise indicated. A recombinant von Willebrand factor and a capturing antibody to it kindly provided by Drs. J. J. Sixma and Ph. G. de Groot (University Medical Center Utrecht, the Netherlands) were also used. To prepare polymerized peptides, glutaraldehyde was added at a final concentration of 0.25%. The wells were saturated with 5% BSA and then washed five times with PBS. Prior to adhesion assays, cells were treated with 50 nM 40-Phorbol 12,13-dibutyrate or with 200 μM P1 peptide (Kotovuori et al., 1999) in serum-free medium for 30 min at room temperature to activate the integrins. Alternatively, cells were stimulated for 60 min at 37° C. with the phorbol ester (50 nM) and the C(1–8;3–9) and RGD-4C peptides each at a 2.5 μM concentration, after which the peptides were removed by washing with PBS/2.5 mM EDTA. Cells were incubated in the microtiter wells (100 000 cells per well) for 60 min at 37° C. in the absence or presence of competing peptides, antibodies or EDTA. Unbound cells were removed by gently washing with PBS and pressing the plate against paper towels. The bound cells were determined by an assay measuring cellular phosphatase activity. Briefly, 100 μl of 50 mM sodium acetate buffer, pH 5.0, containing 1% Triton X-100 and 6 mg/ml p-nitrophenyl phosphate was added per well and incubated for 1 h at 37° C. The reaction was stopped with 50 μl of 1 M NaOH. The absorbance at 405 nm was read on a microplate reader. Alternatively, the attached cells were stained with Crystal Violet essentially as described (Mould et al., 1995).

[2] = tested on: THP-1 cells on type IV collagen; assay: THP-1 cell adhesion on type IV collagen; format: cell-based; conditions: phorbol ester-activated THP-1; read-out: IC50, inhibition of THP-1 adhesion on type IV collagen
Procedure: (§1) In FIG. 5(B), TRP-1 cells were allowed to bind to microtiter wells coated with von Willebrand factor, type IV collagen, or fibronectin. The C(1–8;3–9) peptide was included as a competitor in the concentrations described. The bound cells were determined by the phosphatase assay. The data are the mean ±SD of triplicate wells and were similar in four other experiments.
(§2) Fibrinogen, fibronectin, von Wrlnebrand factor, type IV collagen, GST fusion proteins, Fc fusion proteins or synthetic peptides were coated on microtiter wells at a concentration of 2 μg in 50 μl TBS unless otherwise indicated. A recombinant von Willebrand factor and a capturing antibody to it kindly provided by Drs. J. J. Sixma and Ph. G. de Groot (University Medical Center Utrecht, the Netherlands) were also used. To prepare polymerized peptides, glutaraldehyde was added at a final concentration of 0.25%. The wells were saturated with 5% BSA and then washed five times with PBS. Prior to adhesion assays, cells were treated with 50 nM 40-Phorbol 12,13-dibutyrate or with 200 μM P1 peptide (Kotovuori et al., 1999) in serum-free medium for 30 min at room temperature to activate the integrins. […] The bound cells were determined by an assay measuring cellular phosphatase activity. […] The absorbance at 405 nm was read on a microplate reader. […]

[3] = tested on: THP-1 cells on von Willebrand factor; format: cell-based; conditions: phorbol ester-activated THP-1; read-out: IC50, inhibition of THP-1 cell binding to von Willebrand factor
Procedure: In FIG. 5(A), THP-1 cell binding to von Wirebrand factor was examined in the presence of antibodies against the β2 (7E4), αvβ3 (LM609) or αIIbβ3 (P2) integrins. Following a 60 min incubation in von Willebrand factor-coated wells, the bound cells were determined. The data are the mean ±SD of triplicate wells. The experiment was repeated three times.
as §1
as §2, with “integrins. Alternatively, cells were stimulated for 60 min at 37° C. with the phorbol ester (50 nM) and the C(1–8;3–9) and RGD-4C peptides each at a 2.5 μM concentration, after which the peptides were removed by washing with PBS/2.5 mM EDTA. Cells were incubated in the microtiter wells (100 000 cells per well) for 60 min at 37° C. in the absence or presence of competing peptides, antibodies or EDTA.” for “integrins.”

[4] = tested on: αLβ2 integrin-mediated binding of Jurkat cells to ICAM-1-Fc; assay: Jurkat cell adhesion to ICAM-1-Fc; format: cell-based
Procedure: In FIG. 4(A), Jurkat cells were allowed to attach to immobilized ICAM-1-Fc in microtiter wells in the absence or presence of LLG-C4 peptides. Following a 45 min incubation, the unbound cells were removed by immersing the microtiter plate upside down on a decanter containing PBS, and the attached cells were stained with Crystal Violet.
as §2

[5] = Water solubility of the peptides; format: physicochemical; conditions: compared with the C(1–9;3–8) peptide
[6] = tested on: THP-1 cells on fibrinogen; assay: THP-1 cell adhesion to fibrinogen; format: cell-based
Procedure: Following a 60 min incubation the bound cells were determined by the phosphatase assay. The results are the mean ±SD of triplicate wells and were similar in two other experiments.
In FIG. 6(B), to activate integrins, THP-1 cells were stimulated both with phorbol ester (50 nM) and the RGD-4C and C(1–8;3–9) peptides (each 2.5 μM for 1 h. After washing the cells were allowed to bind to fibrinogen-coated wells in the presence of C(1–8;3–9) or RGD-4C or both peptides at the concentrations indicated. After a 30-min incubation the bound cells were determined. The results are the mean ±SD of triplicate wells and were similar in two other experiments. At some data points the SD values are too small to be seen.
as §2, with “0.25%.” for “0.25%. The wells were saturated with 5% BSA and then washed five times with PBS. Prior to adhesion assays, cells were treated with 50 nM 40-Phorbol 12,13-dibutyrate or with 200 μM P1 peptide (Kotovuori et al., 1999) in serum-free medium for 30 min at room temperature to activate the integrins.”

[7] = tested on: T cells binding to Eahy926 endothelial cells (ICAM-1); assay: T cell binding to TNF-α-stimulated endothelial cell monolayer; format: cell-based; conditions: peptide 50 μM, 45 min
Procedure: In FIG. 4(B), T cells were allowed to bind to TNF-α-stimulated Eahy endothelial cell monolayers that were grown on microtiter wells. LLG-C4 or RGD-4C was included at a concentration of 50 μM. After a 45 min incubation, the unbound cells were removed by immersing the microtiter plate in a PBS solution, and the bound T cells were determined by the phosphatase assay. The data are the mean ±SD of triplicate wells.
To study T cell binding to an endothelial cell monolayer, Eahy926 endothelial cells were plated on microtiter plates at a density of 5×10^4 cells per well and grown for three days. To stimulate the production of ICAM-1, the cells were further grown for 16 h in the presence of TNF-α at a concentration of 10 ng/ml. T cells (1.5×10^5 per well) were allowed to bind to Eahy926 cells first for 30 min at 4° C., then 15 min at 37° C. The unbound T cells were removed by immersing the microtiter plate up side down in PBS. The bound cells were determined by the phosphatase assay.

THP-1 cells [8] = assay: Transwell cell migration assay, fibrinogen-coated filters; format: cell-based; conditions: peptide 200 μM, 10% serum, 18 h
Procedure: In FIG. 6(C), Transwell filters were coated both on the upper and lower surface with fibrinogen, or left uncoated, and then saturated with BSA. TBP-1 cells (5×10^4 per filter) were plated on the upper surface of the filter in 10% serum-containing medium. The concentrations of C(1–8;3–9) and C(1–9;3–8) were 200 μM. Following a 18 hour-culture, the cells migrated underneath the filter were determined. The cells were fixed, stained, and then counted under a microscope.
The in vitro migration of THP-1 cells was studied in closely physiological conditions containing 10% serum to not interfere with adhesive properties of cells. Both the upper and lower surfaces of 8 μm pore size Transwell filters were coated with fibrinogen, LLG-C4-GST, or GST at a concentration of 40 μg/ml overnight at 4° C. Free binding sites were blocked by incubation with 5% BSA/TBS. THP-1 cells (5×10^4 in 100 μl) were plated on the upper compartment in 10% FCS-containing medium. The C(1–8;3–9) or C(1–9;3–8) peptide were included at a concentration of 200 μM. The lower compartment was filled with 750 μl of 10% FCS-containing medium. Following a culture for 18 h at 37° C. the filters were immersed in methanol for 15 min, in water for 10 s, and in 0.1% toluidine blue for 5 min. […] Cells were removed from the upper surface of the filter with a cotton swap, and cells migrated on the lower surface were counted microscopically. […]

THP-1 cells [9] = assay: THP-1 cell adhesion on wells coated with synthetic peptides; format: cell-based
Procedure: In FIG. 2(C), the C(1–8;3–9) and C(1–9;3–8) peptides were coated on microtiter wells by incubating overnight at a concentration of 40 μg/ml in TBS in the absence or presence of glutaraldehyde. Free binding sites on plastic were then blocked with 5% BSA. THP-1 cells ([…]) were allowed to bind for 60 min at 37° C. […] The experiment was repeated twice.
as §2

Molecule: CC(C)C[C@@H]1NC(=O)[C@H](CC(C)C)NC(=O)[C@H](Cc2ccccc2)NC(=O)[C@@H]2CSSC[C@@H](C(=O)O)NC(=O)[C@H](CSSC[C@H](N)C(=O)N3CCC[C@H]3C(=O)N2)NC(=O)CNC1=O [C(1–8;3–9), CPCFLLGCC] (H-CPCFLLGCC-OH; disulfide 1-8, 3-9; N-terminus and C-terminus assumed)
- IC50 ([1]; read-out: IC50, inhibition of THP-1 cell adhesion on LLG-C4-GST, 60 min at 37° C.): 20 µM
- IC50 [2]: ~200 µM
- IC50 [3]: ~20 µM
- IC50 ([4]; ICAM-1-Fc directly coated or captured via protein A, read-out: IC50, inhibition of Jurkat cell adhesion to ICAM-1-Fc): ~80 µM
- water solubility [5]: poorer water solubility

Molecule: ACDCRGDCFCG [RGD-4C, RGD-containing peptide, ligand of several β1 and β3 integrins, reference compound]
- inhibition of THP-1 adhesion on fibrinogen after peptide pre-stimulation ([6]; cells pre-stimulated with phorbol ester (50 nM) and RGD-4C and C(1–8;3–9) each 2.5 μM, 30-min incubation): more effectively than C(1–8;3–9)
- effect on T cell binding to TNF-α-stimulated endothelial cells [7]: no effect

Molecule: CPCFLLGCC [C(1–9;3–8), LLG-C4 conformer with disulfide bridges C1–C9 and C3–C8]
- fold less active than C(1–8;3–9), THP-1 adhesion on LLG-C4-GST [1]: 20 fold
- inhibition of THP-1 adhesion to fibrinogen ([6]; phorbol ester-stimulated THP-1, 60 min): no effect
- inhibition of THP-1 cell migration through fibrinogen-coated filter (THP-1 cells [8]): inhibited only partially
- THP-1 cell binding to coated peptide crosslinked with glutaraldehyde (THP-1 cells [9]; peptide coated at 40 μg/ml in presence of glutaraldehyde): gave no cell binding
- THP-1 cell binding to coated peptide (THP-1 cells [9]; peptide coated at 40 μg/ml, without glutaraldehyde): failed to bind
- inhibition of Jurkat cell adhesion to ICAM-1-Fc ([4]; compared with C(1–8;3–9)): several fold less active and had hardly any effect
